Experiments:
Assay type in all cases: cell-based
[1] = system: Escherichia coli (ATCC 10536); assay: Bacteriostatic activity (CMI), dilution technique in liquid medium, Exemple 9; details: read after 24 H incubation at 35°C
Method: (§1) On a préparé des mélanges de solutions limpides de l'échantillon et du milieu de culture, contenant un adjuvant de dissolution, ajouté à raison de la quantité minimale nécessaire.
(§2) On a introduit les solutions obtenues telles quelles ou diluées dans des tubes stériles sous un volume inférieur ou égal à 2,5 ml, que l'on a ensuite ajusté sinécessaire à 2,5 ml à l'aide d'eau stérile. On a alors ajouté à chaque tube 2,5 ml de bouillon nutritif préparé à concentration double, ensemencé de façon à contenir environ 1000 germes par ml et ayant la composition suivante : peptone bactériologique 10 g extrait de viande de boeuf 5 g chlorure de sodium 5 g eau déminéralisèe Q S P 500 ml pH ajusté à 7,2 à l'aide de potasse. stérilisation par fractions de 50 ml 20 mn à 120°C
(§3) Les souches testées sont cultivées sur milieu gélosé "trypticase-soja" dont la compositon de formulation : peptone trypsique de caséine 15 g peptone papaïnique de soja 5 g chlorure de sodium 5 g gélose 15 g eau déminéralisée Q S P 1000 ml pH ajusté à l'aide de potasse à 7,3 stérilisation 20 mn à 120°C.
(§4) Après incubation 18 H à 35°C on ensemence à l'aide de ces cultures des tubes de milieu liquide "trypticase-soja" de formulation : peptone trypsique de caséine 17 g peptone papaïnique de soja 3 g chlorure de sodium 5 g phosphate dipotassique 2,5 g glucose 2,5 g eau déminéralisée Q S P 1000 ml pH ajusté à 7,3 à l'aide de potasse stérilisation 20 mn à 120°C.
(§5) Après 18 H d'incubation à 35°C, les cultures obtenues sont homogénéisées puis diluées.
(§6) Les quatres souches suivantes ont été testées : • Streptoccus fecalis (ATCC 9790) • Escherichia coli (ATCC 10536) • Proteus morganii (ATCC 53185) • Staphylococcus (ATCC 6538P)
(§7) On a effectué trois essais, en utilisant les gammes de concentrations suivantes de dipalmitate-6,6′-saccharose oxydé
(§8) On a effectué l'incubation des tubes à 35°C. Les lectures ont été faites après 18, 24 et 48 H en comparaison avec des tubes témoins de croissance de chaque microorganisme testé, en présence d'un agent tensio-actif : Tween 80 (marque de fabrique d'Atlas Chemical Industries, Inc) pour l'essai N° 1 et Triton X 100, (marque de fabrique de Rohm & Haas Co) pour les essais N°2 et N°3. Les résultats, donnés dans le Tableau I ci-dessous, relevés après 24 H d'incubation, indiquent la concentration (mg/ml) testée en dipalmitate-6,6′-saccharose oxydé à partir de laquelle on observe une absence de développement bactérien pour chacune des souches étudiées.

[2] = system: Proteus morganii (ATCC 53185); assay: as above; details: read after 24 H incubation at 35°C
Method: as §1, §2, §3, §4, §5, §6, §7, §8

[3] = system: Staphylococcus (ATCC 6538P); assay: as above; details: for concentration à partir de laquelle on observe une absence de développement bactérien: Triton X 100, read after 24 H incubation at 35°C
Method: as §1, §2, §3, §4, §5, §6, §7, §8

[4] = system: Streptoccus fecalis (ATCC 9790); assay: as above; details: read after 24 H incubation at 35°C
Method: as §1, §2, §3, §4, §5, §6, §7, §8

[5] = system: souches étudiées (Streptoccus fecalis, Escherichia coli, Proteus morganii, Staphylococcus); assay: Bacteriostatic activity (CMI), overall statement for the strains of Exemple 9; details: summary sentence in the text: good bacteriostatic activity, all strains of Exemple 9
Method: as §1, §2
as §3, with “120°C. […]” for “120°C.”

[6] = Essai N°1, Tween 80, tested 0,1 - 1 - 10 mg/ml
[7] = Essai N°2, Triton X 100, tested 0,1 - 1,6 mg/ml
[8] = Essai N°3, Triton X 100, tested 0,006 - 3,2 mg/ml

Substance: dipalmitate-6,6′-saccharose oxydé
- concentration à partir de laquelle on observe une absence de développement bactérien [1, 6]: 1 mg/mL
- concentration à partir de laquelle on observe une absence de développement bactérien [1, 7]: 0,8 mg/ml
- concentration à partir de laquelle on observe une absence de développement bactérien [1, 8]: 1,6 mg/ml
- concentration à partir de laquelle on observe une absence de développement bactérien [2, 6]: 1 mg/mL
- concentration à partir de laquelle on observe une absence de développement bactérien [2, 7]: 0,2 mg/ml
- concentration à partir de laquelle on observe une absence de développement bactérien [2, 8]: 0,2 mg/ml
- concentration à partir de laquelle on observe une absence de développement bactérien ([3]; Essai N°2, tested 0,1 - 1,6 mg/ml): < 0,1 mg/ml
- concentration à partir de laquelle on observe une absence de développement bactérien ([3]; Essai N°3, tested 0,006 - 3,2 mg/ml): 0,01 mg/ml
- concentration suffisante pour inhiber son développement ([3]; summary sentence in the text on Exemple 9): ≤ 0,01 mg/ml
- concentration à partir de laquelle on observe une absence de développement bactérien [4, 6]: 1 mg/mL
- concentration à partir de laquelle on observe une absence de développement bactérien [4, 7]: 0,8 mg/ml
- concentration à partir de laquelle on observe une absence de développement bactérien [4, 8]: 0,8 mg/ml
- concentration minimale inhibitrice (CMI) [5]: 1,6 mg/ml

From EP0349431B1, “Sucrose derivatives” (BEGHIN-SAY SOCIETE ANONYME, priority 1988, dated 1990)
